The source of these data is patent US20100190737A1, “COMPOSITIONS COMPRISING INOSINE AND OROTIC ACID AND METHODS OF USE THEREOF FOR THE TREATMENT OF CERTAIN HEART CONDITIONS AND ENHANCEMENT OF WORK CAPACITY” (NUTRITIONAL RESEARCH GROUP LLC, priority 2009, published 2010).

In experiment [1] the test system is rats with experimental aortic stenosis. Nature of the experiment: Short term (7 day) experimental aortic stenosis: heart weight and swimming to exhaustion. The class given is in vivo, rat. The conditions noted are these: EAS rats; for Heart Weight: intragastric daily. The source says:
There are two 7 day experiments in this portion of the study; a preliminary 7 day study with 54 rats in 9 groups (6 rats per group) to determine optimal dosage levels for the separate inosine or potassium orotate ingredients for farther experimentation by determination of maximal heart weight development and work capacity; and then a study with 30 rats in 5 groups (6 rats per group) using the optimal single ingredient dosage levels for comparison with the results of a composition of the ingredients. All compounds were administered intragastrically through a tube after being dissolved in approximately 1 ml of water.
A single control group received a sham operation, while the rest of the groups received experimental aortic stenosis (“EAS”) operations (all according to Beznak in Journal Physiol. (Lond.) 120.23P, 1953 as modified by Kogan, Bull eksper. Biol. Med., 26:112, 1961 and then the other 13 groups received various treatments and dosages of inosine or potassium orotate or a composition of the two ingredients after the optimal inosine and potassium orotate dosages were determined. All animals were tested at the beginning and end of the experiment for swimming to exhaustion times with a 7.5% body weight load attached to their tails.
Sach compound, i.e., inosine and potassium orotate, was administered at different doses and the level of heart hypertrophy and work capacity was observed. Each of the compounds was evaluated in four doses: 12.5 mg/kg, 25 mg/kg, 50 mg/kg and 100 mg/kg body weight. Six animals were used in each group for inosine [4 groups] and potassium orotate [4 groups] plus the one control group (sham operated, no treatment); 54 animals in total.
Thirty white rats were divided into 5 groups (6 animals in each group). Group I was a sham-operated control group, Group II animals with experimental aortic stenosis but were untreated, Groups III, IV & V animals, all with experimental aortic stenosis received by an intragastric tube each day, either inosine (25 mg/kg body weight), potassium orotate (50 mg/kg body weight) or an composition of inosine (25 mg/kg body weight) plus potassium orotate (50 mg/kg body weight), respectively.

Another experiment relates to mice. The experiment can be described thus: Short term (14 day) work capacity: swimming lengths within 30 minutes, hepatic glycogen. The class given is in vivo, mouse. The conditions noted are these: for Swimming lengths / increase in number of swimming lengths: 14 days. As to the method:
Seventy two animals (mice) were divided into 12 groups of 6 animals each; a control group (untreated) and 11 test groups that were intragastrically administered varying daily doses of inosine, potassium orotate or an inosine plus potassium orotate combination (the “combination”) for 14 days. […] The swimming exercise consisted of forcing the animals to perform repetitive swimming in a three meter long channel until exhaustion. The level of exhaustion was determined by a count of the number of swimming lengths which each animal did within 30 minutes. A lower number of swimming lengths indicated a greater level of exhaustion, whereas a higher number of lengths indicated a greater work capacity.

A further experiment has as its system white rats. The experiment can be described thus: Long-term (6 months) work capacity in trained and non-trained rats. The note with it: untrained rats. The procedure: Seventy two white rats were randomly placed in 6 groups (12 animals each), to test the effectiveness of training and to determine morphological and physiological alterations in the rats. In Group I, control rats were nontrained and not administered either of inosine or the combination of inosine and orotate; Group II comprised non-trained rats to which were administered inosine (25 mg/kg/body weight; Group III comprised non-trained rats to which were administered the combination of inosine plus potassium orotate (25 mg/kg/body weight of inosine and 50 mg/kg/body weight potassium orotate); Group IV comprised trained rats that were not administered either of inosine or the combination of inosine and orotate; Group V comprised trained rats to which was administered inosine alone (25 mg/kg/body weight), and Group VI comprised trained rats to which was administered the combination of inosine plus potassium orotate (25 mg/kg/body weight of inosine and 50 mg/kg/body weight potassium orotate).
Training of rats consisted of their forced swimming in a water bath (28-30° C.) with a weight fixed on their backs (7.5% of the rat body weight). During the first two weeks the animals swam daily for 5-10 minutes, after which we determined the individual maximum time of swimming to exhaustion (i.e. maximum work capacity) for each animal and then calculated the mean maximum time for each group. After 2 weeks these initial maximum work capacity values were used for planning and performing additional swimming training.
The functional condition of the rats at rest was estimated from their work capacity (maximum swimming time), body weight increase, EKG tests, oxygen consumption and sodium and potassium levels in the myocardium in a relatively quiet state. The morphological state of the heart and other viscera were rated from their absolute and relative weights, and also from histological and histochemical examinations of the myocardium. Also determined were the amounts of glycogen in the m. quadriceps (quadriceps group of muscles) of the hip, the myocardium and the liver. All the quantitative results obtained were processed with conventional statistical procedures.

A further experiment relates to patients with arrhythmia. Nature of the experiment: Case studies: patients with arrhythmia given inosine/magnesium orotate capsules. Format: in vivo, human. The note with it: Example 5. An excerpt: Another cardiac condition prevalent in the population is arrhythmia. Cardiac arrhythmia is characterized by an abnormal rate of cardiac muscle contractions. The rate of contractions may be too slow, too fast, too frequent or too infrequent. The present pharmaceutical composition stabilizes the cardiac arrhythmia.

Experiment [2] has as its system chinchilla rabbits with experimental myocardial infarction. The experiment can be described thus: Experimentally-induced myocardial infarction (coronary artery ligation). The note with it: for NN of Animals With Necrosis: of 10 animals; for EKG Q: oral 100 mg/kg BW of each ingredient daily. The class given is in vivo, rabbit. The procedure: Histological, light microscopic methods of investigation have been employed to study the zone of necrosis, perinecrotic zone and myocardium regions spaced from the time of infarction by 7 and 14 days after the infarction event. Dynamic electrocardiographic observation over the animals was carried out during the first day and during the following 7 and 14 days. The study of the total cross-sectional patterns of a rabbit's heart has made it possible to precisely define these zones. The first Group of 10 animals was sham-operated without treatment (Group I, positive control-Intact, no MI). […] Group II animals were without treatment (negative control-MI Control).

[3] abbreviates: seventh day, inosine 25 mg/kg BW, potassium orotate 50 mg/kg BW, alone or together.
Setting [4] is: seventh day, inosine 25 mg/kg BW, potassium orotate 50 mg/kg BW, alone or together, listed as orotate.

In the case of `O=C([O-])c1cc(=O)[nH]c(=O)[nH]1.[K+]` [potassium orotate], the swimming time was 18 ± 4.0 min in experiment [1] (day 7, 12.5 mg/kg intragastrically, EAS control 15±5.0, sham 62±5.0); 22 ± 3.0 min in experiment [1] (day 7, 25 mg/kg); 32 ± 3.0 min in experiment [1] (day 7, 50 mg/kg); 30 ± 3.0 min in experiment [1] (day 7, 100 mg/kg); 33 ± 4 min in experiment [1] (setting [3]); 33 ± 4.0 min in experiment [1] (setting [4]). Moreover, the relative heart weight in experiment [1] (seventh day, 12.5 mg/kg, EAS control 400±8.9, sham 300±5.0) is 420±6.0 mg/100 g. body weight; in experiment [1] (seventh day, 25 mg/kg) it was 440±11 mg/100 g. body weight; in experiment [1] (seventh day, 50 mg/kg), 460±16 mg/100 g. body weight; in experiment [1] (seventh day, 100 mg/kg), 465±15 mg/100 g. body weight. Further, the “Heart Weight” value in experiment [1] (setting [3]) was 460±16 mg/100 gr BW; in experiment [1] (setting [4]), 460 ± 16 mg/100 gr BW. For the same molecule, the Swimming lengths in the experiment on mice (25 mg/kg BW) is listed as 40.2; with mice (50 mg/kg BW) it was 45.6; in the experiment on mice (100 mg/kg BW), 56.3; with mice (200 mg/kg BW) it was 44.6. Further, the “increase in number of swimming lengths” value with mice (25 mg/kg/body weight daily) is on record as 60.7%; with mice (50 mg/kg/body weight daily), 82.2%; in the experiment with mice (100 mg/kg/body weight daily), 125%; in the experiment with mice (200 mg/kg/body weight daily), 78.3%. Further, the “mean decrease of hepatic glycogen stores during the swimming exercise” value in the experiment on mice (controls 67.5% from baseline) was found to be 18.5%. For the same molecule, the “increased hepatic glycogen content” value in the experiment with mice (inosine 25 mg/kg, potassium orotate 50 mg/kg, or combination) came out at 18%. In the experiment with white rats, the “Heart weight after 6 mo.” value is 304 ± 9.2 mg/100gk BW. In the experiment on white rats, the “Oxygen consumption End of experiment” value is 27.0 ± 0.60 ml/min/kg BW. For the same molecule, the “Swimming time Before” value with white rats amounted to 72 ± 4.0 min. In the experiment with white rats (end of experiments), the “Glycogen in m. quadriceps, After work” value is on record as 488 ± 15.0. The “Glycogen in m. quadriceps, In rest” value in the experiment with white rats (end of experiments) is reported as 860 ± 16.0. Moreover, the “Swimming time After 6 mo.” value in the experiment on white rats (INO 25 mg/kg, PO 50 mg/kg) was determined as 80 ± 4.2 min.
Take `COCCc1ccc(OCC(O)CNC(C)C)cc1` (centres unmarked) [Toprol]: in the experiment with patients with arrhythmia (50 mg Toprol daily, one month, from 3-4 times weekly), the “arrhythmia episodes per week” value was 2-3 per week.
For `CCC(=O)O[C@@H](O[P@](=O)(CCCCc1ccccc1)CC(=O)N1C[C@H](C2CCCCC2)C[C@H]1C(=O)[O-])C(C)C.[Na+]` [Monopril], the “blood pressure (systolic over diastolic)” value in the experiment with patients with arrhythmia (10 mg Monopril with 50 mg Toprol daily, one month, from 165/105) is reported as 150/95; with patients with arrhythmia (Monopril increased to 20 mg) it was 145/90.
Take `O=C(O)c1cc(=O)[nH]c(=O)[nH]1` [orotic acid]: in experiment [2] (Day 7), the “Thickness of Left Ventricular Wall” value is given as 5.0 ± 0.61 mm and the “EKG Q” value is given as 1.0 ± 0.02 mm. In experiment [2] (Day 7, 100 mg/kg BW each), the “EKG QRS” value came out at 0.07 ± 0.003 s and the “EKG R” value was determined as 4.2 ± 0.030 mm. Besides, the “NN of Animals With Necrosis” value in experiment [2] (Day 7, MI control 10) came out at 5. Besides, in experiment [2] (Day 14), the “EKG QRS” value amounted to 0.06 ± 0.016 s, the “EKG R” value turned out to be 4.4 ± 0.27 mm, the “Thickness of Left Ventricular Wall” value came to 5.4 ± 0.23 mm and the “EKG Q” value is on record as 0.6 ± 0.05 mm. In addition, the “NN of Animals With Necrosis” value in experiment [2] (Day 14, MI control 3) is on record as 0. In addition, the reduction in necroses in experiment [2] (administered individually, 100 mg/kg) is recorded as 50%. For the same molecule, in experiment [2] (by the fourteenth day), the “hemorrhages or infiltration in the infarction zone” value is reported as “virtually had no hemorrhages or infiltration in the infarction zone”. In addition, the “restoration of EKG readings” value in experiment [2] (by the seventh experimental day) is “nearly a complete restoration of the voltage of EKG waves and of the systolic index”.
